Assay results reported in patent US20050209278A1, “Piperidinyl- and piperazinyl-sulfonylmethyl hydroxamic acids and their use as protease inhibitors” (priority 2002, published 2005).
Structures can show the parent of a compound that is named as a salt.

Molecular target: T1, MMP-1 (Homo sapiens, UniProt P03956)
T1 construct: made in house; host or cells: MMP-1-transfected HT-1080 cells (spent media)
T1 sequence (P03956 100-469): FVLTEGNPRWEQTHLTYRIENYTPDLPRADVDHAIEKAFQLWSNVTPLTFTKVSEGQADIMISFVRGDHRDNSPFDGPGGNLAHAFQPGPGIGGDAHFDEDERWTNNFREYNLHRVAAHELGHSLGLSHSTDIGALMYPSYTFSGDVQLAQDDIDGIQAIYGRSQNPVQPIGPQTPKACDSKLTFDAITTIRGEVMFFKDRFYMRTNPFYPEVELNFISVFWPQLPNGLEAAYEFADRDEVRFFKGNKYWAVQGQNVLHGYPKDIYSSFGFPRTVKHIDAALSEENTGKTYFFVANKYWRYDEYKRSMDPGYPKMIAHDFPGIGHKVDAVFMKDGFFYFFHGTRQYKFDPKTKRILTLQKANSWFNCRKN
Test: In vitro MMP inhibition, Ki determination (fluorogenic substrate II)
Assay type: biochemical
Details: MMP-1 Ki, value not in parenthesis
Description: Several hydroxamic acids and salts thereof were analyzed in in vitro assays to determine their ability to inhibit the MMP cleavage of peptide substrates. […] and IC50 constants were calculated from the assayed hydroxamic acid-MMP interactions.
Human recombinant MMP-1, MMP-2, MMP-9, MMP-13, and MMP-14 were used in this assay. All enzymes were prepared in Assignee's laboratories following usual laboratory procedures. Protocols for the preparation and use of these enzymes are available in the scientific literature. See, e.g., Enzyme Nomenclature (Academic Press, San Diego, Calif., 1992) (and the citations therein). See also, Freije et al., “Molecular cloning and expression of collagenase-3, a novel human matrix metalloproteinase produced by breast carcinomas,” J Biol. Chem., 269(24), 16766-16773 (1994).
The MMP-1 proenzyme was purified from the spent media of MMP-1-transfected HT-1080 cells provided by Dr. Harold Welgus of Washington University (St. Louis, Mo.). The protein was purified on a zinc chelating column.
All MMPs were activated using 4-aminophenylmercuric acetate (“APMA”, Sigma Chemical, St. Louis, Mo.) or trypsin. MMP-9 also was activated using human recombinant MMP-3 (purified in Assignee's laboratory following standard cloning and purification techniques).
Two fluorogenic, methoxycoumarin-containing polypeptide substrates were used in the MMP inhibition assays: [drawing 427] Here, “Dpa” is 3-(2,4-dinitrophenyl)-L-2,3-diaminopropionyl group, and “MCA” is 7-methoxycoumarin-4-yl acetyl. Substrate (I) was purchased from Baychem (Redwood City, Calif.), and substrate II was prepared Assignee's laboratory. Substrate I was used in the IC50 determination assays, while substrate II was used in the Ki determination assays. In the absence of MMP inhibitory activity, either substrate is cleaved at the Gly-Leu peptide bond. This cleavage separates the highly fluorogenic peptide from the 2,4-dinitrophenyl quencher, thus resulting in increase of fluorescent intensity.
The stock solutions of the assayed hydroxamic acids (or salts thereof) were prepared in 1% dimethyl sulfoxide (DMSO). These stock solutions were diluted in Buffer A (100 mM Tris-HCl, 100 mM NaCl, 10 mM CaCl2, 0.05% polyoxyethylene 23 lauryl ether, pH 7.5) to obtain solutions with different hydroxamic acid concentrations, i.e., assay solutions with different concentrations of the assayed MMP inhibitory compound. The experiment controls contained the same amount of Buffer A/DMSO as the assayed sample, but contained no hydroxamic acid (or salt thereof).
The assays from which the Ki determinations were made were performed as follows. The assayed hydroxamic acid samples were incubated in separate wells of untreated white polystyrene plates (Nunc Nalgene International, Rochester, N.Y.), and analyzed on a Tecan SpectraFlour Plus plate reader. The excitation wavelength was 330 nm, and the emission wavelength—420 nm. All samples (assayed hydroxamic acids and controls) were incubated in separate plate wells at room temperature for 1 hr in the presence of 4 μM of MMP substrate (II). In the absence of MMP inhibitory activity, substrate II was cleaved at the Gly-Leu bond resulting in an increase of relative fluorescence. Inhibition was observed as a reduced rate of this increase in relative fluorescence. The various hydroxamic acids were analyzed using a single low enzyme concentration with a single substrate concentration fixed at or below the Km. This protocol is a modification of method by Knight et al., FEBS Lett., 296(3), 263-266 (1992). Apparent inhibitory constants were determined by non-linear regression of reaction velocity as a function of inhibitor and enzyme concentration using Morrison's equation, as described by Kuzmic, Anal. Biochem. 286, 45-50 (2000). […] Since the substrate concentration was chosen to be at or below the Km, the apparent Ki's from this analysis were reported as Ki's without correction for the influence of substrate.

Structure (SMILES) | Ki [µM]
O=C(NO)C1(S(=O)(=O)N2CCN(c3ccc(COCC(F)(F)C(F)(F)C(F)(F)C(F)F)cc3)CC2)CCOCC1 [Example 68] | > 10

Same assay, conditions: human recombinant enzyme; 4 μM substrate II; room temperature, 1 hr; read-out: MMP-1 Ki

Structure (SMILES) | Ki [µM]
O=C(NO)C1(S(=O)(=O)N2CCN(c3ccc(OCCCC(F)(F)F)cc3)CC2)CCOCC1 [Example 7, N-hydroxy-4-({4-[4-(4,4,4-trifluorobutoxy)phenyl]piperazin-1-yl}sulfonyl)tetrahydro-2H-pyran-4-carboxamide Hydrochloride] | > 10
CCCCOc1ccc(N2CCN(S(=O)(=O)C3(C(=O)NO)CCN(CCOC)CC3)CC2)cc1F [Example 11, 4-[[4-(4-butoxy-3-fluorophenyl)-1-piperazinyl]sulfonyl]-N-hydroxy-1-(2-methoxyethyl)-4-piperidinecarboxamide, Dihydrochloride] | > 10
O=C(NO)C1(S(=O)(=O)N2CCN(c3ccc(OCC(F)(F)F)cc3)CC2)CCOCC1 [Example 2, N-hydroxy-4-({4-[4-(2,2,2-trifluoroethoxy)phenyl]piperazin-1-yl}sulfonyl)tetrahydro-2H-pyran-4-carboxamide Hydrochloride] | > 10
COc1ccc(-c2cnc(N3CCN(S(=O)(=O)C4(C(=O)NO)CCOCC4)CC3)nc2)cc1 [Example 8, N-hydroxy-4-({4-[5-(4-methoxyphenyl)pyrimidin-2-yl]piperazin-1-yl}sulfonyl)tetrahydro-2H-pyran-4-carboxamide Hydrochloride] | 0.748
O=C(NO)C1(S(=O)(=O)N2CCN(c3ccc(OCC4CC4)c(F)c3)CC2)CCN(C2CC2)CC1 [Example 10, 1-cyclopropyl-4-[[4-[4-(cyclopropylmethoxy)-3-fluorophenyl]-1-piperazinyl]sulfonyl]-N-hydroxy-4-piperidinecarboxamide, dihydrochloride] | > 10
CCCCCCCCC1CCN(S(=O)(=O)C2(C(=O)NO)CCOCC2)CC1 [Example 26, 4-(4-octyl-piperidine-1-sulfonyl)-tetrahydro-pyran-4-carboxylic Acid Hydroxyamide] | 2.97

Second part, the compound after the results:

Ki [µM] | Structure (SMILES)
> 10 | CCCCCc1ccc(C2CCN(S(=O)(=O)C3(C(=O)NO)CCN(CCOC)CC3)CC2)cc1 [Example 15, N-hydroxy-1-(2-methoxyethyl)-4-{[4-(4-pentylpheyl)piperidin-1-yl]sulfonyl}piperidine-4-carboxamide Hydrochloride]
> 10 | CCCCc1ccc(N2CCN(S(=O)(=O)C3(C(=O)NO)CCN(CCOC)CC3)CC2)cc1 [Example 5, 4-{[4-(4-butylphenyl)piperazin-1-yl]sulfonyl}-N-hydroxy-1-(2-methoxyethyl)piperidine-4-carboxamide Dihydrochloride]
> 10 | CCCCCc1ccc(N2CCN(S(=O)(=O)C3(C(=O)NO)CCN(CCOC)CC3)CC2)cc1F [Example 13, 4-{[4-(3-fluoro-4-pentylphenyl)piperazin-1-yl]sulfonyl}-N-hydroxy-1-(2-methoxyethyl)piperidine-4-carboxamide Dihydrochloride]
> 10 | CCCCCc1ccc(N2CCN(S(=O)(=O)C3(C(=O)NO)CCN(C(=O)C(F)(F)F)CC3)CC2)cc1 [Example 21, N-hydroxy-4-{[4-(4-pentylphenyl)piperazin-1-yl]sulfonyl}-1-(trifluoroacetyl)piperidine-4-carboxamide Hydrochloride]

Same assay, conditions: value not in parenthesis; read-out: MMP-1 Ki

Structure (SMILES) | Ki [µM]
CC(C)CCc1ccc(N2CCN(S(=O)(=O)C3(C(=O)NO)CCOCC3)CC2)nc1 [Example 133] | > 10
CC(C)(C)N1CCC(C(=O)NO)(S(=O)(=O)N2CCN(c3ccc(OCCCC(F)(F)F)cc3F)CC2)CC1 [Example 116] | > 10
O=C1c2ccccc2C(=O)N1CCCCc1ccc(N2CCN(S(=O)(=O)C3(C(=O)NO)CCOCC3)CC2)nc1 [Example 132] | 0.0661
CCCCOc1ccc(N2CCN(S(=O)(=O)C3(C(=O)NO)CCN(C(=O)c4cc5ccccc5s4)CC3)CC2)cc1 [Example 143] | > 10
CCCCCCCCCc1cnc(N2CCN(S(=O)(=O)C3(C(=O)NO)CCOCC3)CC2)nc1 [Example 111] | > 10
COc1ccc(N2CCN(S(=O)(=O)C3(C(=O)NO)CCOCC3)CC2)nc1 [Example 109] | > 10
O=C(NO)C1(S(=O)(=O)N2CCN(c3ccc(OCCCC(F)(F)F)cc3F)CC2)CCOCC1 [Example 117] | > 10
O=C(NO)C1(S(=O)(=O)N2CCN(c3ncc(Br)cn3)CC2)CCOCC1 [Example 104] | 0.835
CCCc1ccc(N2CCN(S(=O)(=O)C3(C(=O)NO)CCOCC3)CC2)nc1 [Example 136] | 2.38
CCCCOc1ccc(N2CCN(S(=O)(=O)C3(C(=O)NO)CCN(C(=O)c4cc5ccccc5o4)CC3)CC2)cc1 [Example 127] | > 10
Cc1ccc(N2CCN(S(=O)(=O)C3(C(=O)NO)CCOCC3)CC2)nc1 [Example 138] | 1.38

Further lines, results first:

Ki [µM] | Structure (SMILES)
> 10 | COCCN1CCC(C(=O)NO)(S(=O)(=O)N2CCN(c3ccc(OCC(F)(F)F)cc3)CC2)CC1 [Example 119]
> 10 | CCCCOc1ccc(N2CCN(S(=O)(=O)C3(C(=O)NO)CCN(c4ccc(OCCOC)nn4)CC3)CC2)cc1 [Example 129]
> 10 | CCCCOc1ccc(N2CCN(S(=O)(=O)C3(C(=O)NO)CCN(C(=O)OCCF)CC3)CC2)cc1 [Example 113]
> 10 | CCCCOc1ccc(N2CCN(S(=O)(=O)C3(C(=O)NO)CCN(C(=O)N4CCOCC4)CC3)CC2)cc1 [Example 124]
> 10 | CCCCOc1ccc(N2CCN(S(=O)(=O)C3(C(=O)NO)CCN(c4nc5ccccc5o4)CC3)CC2)cc1 [Example 150]
> 10 | CCCCOc1ccc(N2CCN(S(=O)(=O)C3(C(=O)NO)CCN(c4ccc(OC)nc4)CC3)CC2)cc1 [Example 142]
> 10 | CCCCc1ccc(N2CCN(S(=O)(=O)C3(C(=O)NO)CCN(c4ccc(C)cc4)CC3)CC2)cc1 [Example 146]
> 10 | COCCN1CCC(C(=O)NO)(S(=O)(=O)N2CCN(c3ccc(OCCCC(F)(F)F)cc3F)CC2)CC1 [Example 102]
8.9 | CCCCOc1ccc(N2CCN(S(=O)(=O)C3(C(=O)NO)CCN(C(=O)OCCOC)CC3)CC2)cc1 [Example 141]
> 10 | CC(C)CCOc1ccc(N2CCN(S(=O)(=O)C3(C(=O)NO)CCN(C4CC4)CC3)CC2)cc1 [Example 128]
7.24 | CCCCOc1ccc(N2CCN(S(=O)(=O)C3(C(=O)NO)CCN(c4cc(C)ccn4)CC3)CC2)cc1 [Example 139]
> 10 | CCCCOc1ccc(N2CCN(S(=O)(=O)C3(C(=O)NO)CCN(c4ccc(C)cn4)CC3)CC2)cc1 [Example 125]
> 10 | CCCCOc1ccc(N2CCN(S(=O)(=O)C3(C(=O)NO)CCN(c4nccc(C(F)(F)F)n4)CC3)CC2)cc1 [Example 130]
> 10 | CCCCCc1ccc(N2CCN(S(=O)(=O)C3(C(=O)NO)CCN(c4ccc(C)cc4)CC3)CC2)cc1 [Example 147]
> 10 | COCCN1CCC(C(=O)NO)(S(=O)(=O)N2CCN(c3ccc(OCC(F)(F)C(F)(F)F)cc3)CC2)CC1 [Example 144]
